# Laboratory results published in US10183062B2, “Treatment for cancer” (The University of Nottingham, priority 2013, dated 2019).
# Key:
# [1] = target: NmeNTR, Neisseria meningitidis MC58 nitroreductase (NfnB homolog, Q9K022), wild type, SEQ ID NO: 1 (Neisseria meningitidis, UniProt Q9K022); test: CB1954 nitroreductase activity, HPLC, purified His-tagged NmeNTR; format: biochemical; conditions: CB1954, cofactor NADH; 37° C., pH 7.0
# Source text: Genes encoding homologs of E. coli NfnB and Bacillus amyloliquefaciens YwrO from several bacteria were cloned into an E. coli expression vector for screening (see Methods below). These were the NfnB homolog from Neisseria meningitidis MC58 (‘NmeNTR’, accession number Q9K022), the NfnB homolog from Haemophilus somnus 129PT (‘HsoNTR’, accession number ZP_00122352.1), the NfnB homolog from Burkholderia fungorum LB400 (‘BfuNTR’, accession number ZP_00029570.1), the YwrO homolog from Vibrio cholerae (‘VchYwrO’, accession number Q9KNX3), the YwrO homolog from Rhodobacter sphaeroides (‘RspYwrO’, accession number ZP_00007082.1), and two YwrO homologs from Pseudomonas aeruginosa (‘PaeYwrO1’, accession number Q9HUJ0; and ‘PaeYwrO2’, accession number Q9I4B3).
# For determination of CB1954 nitroreductase kinetic parameters, six-histidine affinity-tagged enzymes were purified from cell lysates purified using a Novagen His-Bind kit in accordance with the manufacturer's instructions.
# CB1954 nitroreductase activity was determined essentially as described by Anlezark (6). Reaction mixtures containing 500 μM NADH or NADPH and a small quantity of enzyme (either crude lysate or purified enzyme) were assembled in pre-warmed (to 37° C.) 100 mM sodium phosphate buffer (pH 7.0), and started with the addition of 100 μM CB1954 and prompt mixing.
# To determine initial reaction rates during preliminary screening of CB1954 nitroreductase candidates, aliquots of the reaction mixtures taken at various times were injected into a Partisphere SCX (100×4.7 mm) HPLC column and eluted isocratically at 2 ml/min with 130 mM NaH2PO4 (pH 5.0). Eluates were continuously monitored at 260 nm and 325 nm, and the absorbance spectra of eluting components recorded using a photodiode array detector. Peaks were identified with reference to standards and/or by their known absorbance spectra (7) and anticipated column retention times as appropriate. Rates were determined based on the decrease in the area under the CB1954 peak over time, normalised to the known starting concentration of 100 μM using the peak from the zero timepoint sample.
# To determine initial reaction rates and CB1954 nitroreduction products in later experiments with purified proteins, peaks were identified as before, and rates were determined based on the increase in the area under the 4-hydroxylamine derivative peak over time, normalised using enzymatically-synthesised 4-hydroxylamine standards.
# NmeNTR and HsoNTR were each affinity-tagged, over-expressed, purified, and the CB1954 nitroreductase activities of the purified proteins characterized using the HPLC assay. The reaction products and kinetic parameters of these enzymes with respect to CB1954 and NADH were determined (Table 1). […] Moreover, the kinetic parameters of HsoNTR and NmeNTR differ dramatically from those of E. coli NfnB and other published enzymes (Table 1). […] NmeNTR would therefore approach saturation with CB1954 in a therapeutic regime using the maximum clinically-recommended dose, so the prodrug would be efficiently activated and high levels of tumour-specific cytotoxicity achieved.
# [2] = test system: Vibrio fischeri FRase I variant F124W; conditions: Swe et al., 2012, cited from earlier work
# [3] = test system: HCT116 tumours; test: Mouse xenograft tumour growth delay (CDEPT); format: in vivo, NMRI nu/nu mice; conditions: prodrug alone, 15 mg/kg i.p., 5 consecutive days
# Protocol: Human colorectal HCT116 carcinoma cells were grown in DMEM medium supplemented with 10% FBS, trypsinized and injected subcutaneously in 100 μl PBS/ . . . % matrigel at a concentration of 5.10^6 cells in the abdominal flank of adult NMRI nu/nu mice. As soon as tumours were palpable, tumour volumes were determined three times per week by measuring three orthogonal diameters using calipers. Volumes were calculated according to the formula V=A×B×C×/6. All experiments were conducted in accordance with local institutional guidelines of the University of Leuven, approved by the animal ethics committee and procedures were according to the guidelines defined by the UKCCCR (12). […] Tumour growth delay was determined for each individual tumour within the different groups as the time necessary to reach three times their initial volume at the start of the treatment. […]
# Since strains E1 and N1 express stably-integrated NTR under the regulatory control of a strong promoter without inclusion of any antibiotic resistance gene, it was next determined whether administration of these clinically-applicable strains in combination with prodrug administration to tumour-bearing animals would result in anti-tumour efficacy. It was first evaluated whether inactivation of pyrE affected the tumour-colonizing capacity of systemically administered spores. […]
# [4] = test system: HinNTR, NTR from Haemophilus influenzae; conditions: Theys et al., 2006, cited from earlier work
# [5] = test system: E. coli NfnB variant N71S/F124K; conditions: Searle et al., 2004 and Race et al., 2007, cited from earlier work
compound,measurement,setting,value
"NC(=O)c1cc(N2CC2)c([N+](=O)[O-])cc1[N+](=O)[O-] [CB1954, 5-(aziridin-1-yl)-2,4-dinitrobenzamide]",Kcat,[1],4.04 (NADH) S^−1
same,Kcat,[2]; CB1954,26.6 S^−1
same,Km,[2]; read-out: Km^CB1954,259 µM
same,tumour growth delay,[3],did not result in any effect
same,Kcat,[4]; CB1954,56.2 S^−1
same,Km,[4]; read-out: Km^CB1954,690 µM
same,Kcat,[5]; CB1954,7.5 S^−1
same,Km,[5]; read-out: Km^CB1954,170 µM
